This is an account of results in PubChem BioAssay (NCI).

Where “and” joins values, the source holds several entries; their conditions need not be identical. Identical values can stand only once.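 A five-concentration, 48-hour dose response in 96-well plates underlies each endpoint, interpolated linearly between surrounding concentrations. Abbreviation: GI50, concentration required for 50% inhibition of growth. TGI is the concentration that stops growth completely.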

Some test systems named below: HCT-15 colon; HOP-92 NSCLC; HS 578T breast; M14 melanoma; MDA-MB-435; MOLT-4 leukemia; SK-OV-3 ovarian; SNB-19 CNS; TK-10 renal; UACC-62 melanoma.
What all share (assay): DTP human tumour cell line panel, 48 h

By TGI is commonly meant the concentration giving total growth inhibition. Low values mean more potent growth arrest, high ones less potent growth arrest. The term GI50 denotes the concentration giving 50% growth inhibition. As for `Cc1cc(C)c2c(=O)cc(-c3ccc(F)cc3)[nH]c2n1`, the concentration for total growth inhibition (TGI) was more than 100 µM in the test with HCT-15 colon; 90.3 µM in the test with HOP-92 NSCLC; more than 100 µM in the test with HS 578T breast; more than 100 µM with M14 melanoma; 40.6 µM in the test with MDA-MB-435; more than 100 µM with MOLT-4 leukemia. For the same compound, the TGI with SK-OV-3 ovarian, in the test on SNB-19 CNS, in the test on TK-10 renal and in the test with UACC-62 melanoma was more than 100 µM throughout. Moreover, the GI50 in the test on MDA-MB-435 is 18.6 µM.

Turning to `Cc1cccc2c1NC(=O)[C@@H](NC(=O)[C@H](CCC(F)(F)F)[C@H](CCC(F)(F)F)C(N)=O)N=C2c1cccc(F)c1`, the GI50 in the test with HCT-15 colon was more than 100 µM; in the test with HOP-92 NSCLC it was 14.4 µM; with HS 578T breast, 20.4 µM; in the test with M14 melanoma, 73.2 µM; in the test on MDA-MB-435 it was more than 100 µM; with MOLT-4 leukemia, more than 100 µM. In addition, the GI50 in the test on SK-OV-3 ovarian was 28.7 µM; in the test on SNB-19 CNS it was 17 µM; with TK-10 renal it was 34.7 µM; with UACC-62 melanoma, 28.2 µM. In addition, the TGI in the test on HCT-15 colon is more than 100 µM; in the test on HOP-92 NSCLC it was 57.1 µM; in the test with HS 578T breast, 64 µM; in the test with M14 melanoma it was more than 100 µM; in the test with MDA-MB-435 it was more than 100 µM; in the test on MOLT-4 leukemia, more than 100 µM. For the same compound, the TGI was 91.3 µM in the test on SK-OV-3 ovarian, 41 µM with SNB-19 CNS, more than 100 µM in the test with TK-10 renal and more than 100 µM in the test on UACC-62 melanoma.

Regarding `COc1cc2c3c(n(CCCNC(C)(C)CO)c(=O)c2cc1OC)-c1cc2c(cc1C3=O)OCO2`, the GI50 in the test with HCT-15 colon is 2.04 µM; with HOP-92 NSCLC, more than 25.9 µM; with HS 578T breast, 24.5 µM; in the test on M14 melanoma it was 0.754 µM; in the test with MDA-MB-435, 4.52 µM; in the test with SK-OV-3 ovarian it was 17.9 µM. Moreover, the results for the GI50 in the test with SNB-19 CNS, in the test with TK-10 renal and with UACC-62 melanoma were 1.83 µM, 13 µM and 0.198 µM, respectively. For the same compound, the TGI is 16.6 µM with HCT-15 colon; more than 53.1 µM with HOP-92 NSCLC; 80.7 µM with HS 578T breast; 19 µM in the test with M14 melanoma; more than 75.5 µM with MDA-MB-435; 0.11 µM in the test with MOLT-4 leukemia. The TGI was more than 68.2 µM in the test with SK-OV-3 ovarian, more than 61.2 µM in the test with SNB-19 CNS, 38.6 µM with TK-10 renal and 5.23 µM in the test on UACC-62 melanoma.

Turning to `COC(=O)CC12CC(NC(=O)c3csc([C@@H](C[C@H](C(C)C)N(C)C(=O)[C@@H](NC(=O)[C@H]4CCCCN4C)C(C)C)OC(C)=O)n3)(C1)C2`, the GI50 with HCT-15 colon is 0.0183 µM and 0.0254 µM; with HOP-92 NSCLC it was 0.0174 µM; with HS 578T breast, 0.00396 µM and 0.00902 µM; with M14 melanoma it was 0.00355 µM; in the test on MDA-MB-435 it was 0.000341 µM and 0.00333 µM; in the test with MOLT-4 leukemia, 0.00615 µM and 0.0143 µM. Also, the GI50 was 0.00439 µM and 0.0105 µM in the test on SK-OV-3 ovarian; 0.0031 µM and 0.0114 µM in the test with SNB-19 CNS; 0.415 µM in the test on TK-10 renal; 0.00325 µM and 0.00622 µM in the test with UACC-62 melanoma. For the same compound, the TGI with HCT-15 colon was more than 33.3 µM; in the test with HOP-92 NSCLC, 4.73 µM; with HS 578T breast it was more than 33.3 µM; in the test with MDA-MB-435, 0.00165 µM and 0.00449 µM; in the test on MOLT-4 leukemia it was more than 33.3 µM; in the test with SK-OV-3 ovarian, more than 33.3 µM. The TGI with SNB-19 CNS, in the test on TK-10 renal and with UACC-62 melanoma was more than 33.3 µM each time.

Regarding `O=C(NCCNc1nccc(-c2c(-c3ccc(F)cc3)nc3sccn23)n1)Nc1cccc(C(F)(F)F)c1`, the GI50 was 4.22 µM in the test on HCT-15 colon; 4.59 µM with HOP-92 NSCLC; 8.17 µM with HS 578T breast; 8.73 µM in the test on M14 melanoma; 3.12 µM in the test with MDA-MB-435; 6.3 µM in the test with MOLT-4 leukemia. Also, the GI50 in the test on SK-OV-3 ovarian was 2.67 µM; with SNB-19 CNS, 7.93 µM; with TK-10 renal it was 10.5 µM; in the test with UACC-62 melanoma, 4.75 µM. For the same compound, the TGI in the test with HCT-15 colon is 47.9 µM; in the test on HOP-92 NSCLC, 33.3 µM; with HS 578T breast it was 65.5 µM; in the test with M14 melanoma, 21.8 µM; with MDA-MB-435, 11.4 µM; in the test on MOLT-4 leukemia it was more than 100 µM. For the same compound, the concentration for total growth inhibition (TGI) was determined as 11.9 µM in the test on SK-OV-3 ovarian, 36.8 µM in the test with SNB-19 CNS, 36.2 µM in the test with TK-10 renal and 17 µM with UACC-62 melanoma.

For the compound `CSc1nc(SC)c2c(C)cn(Cc3ccccc3)c2n1`, the TGI in the test on HCT-15 colon, in the test with HOP-92 NSCLC, in the test on HS 578T breast, in the test on M14 melanoma, in the test on MDA-MB-435 and in the test on MOLT-4 leukemia was more than 100 µM each time. For the same compound, the total growth inhibition concentration (TGI) with SK-OV-3 ovarian, with SNB-19 CNS, in the test with TK-10 renal and in the test on UACC-62 melanoma was more than 100 µM each time.
